In PMC9856155, “Protein Conformational Dynamics Underlie Selective Recognition of Thermophilic over Mesophilic Enzyme I by a Substrate Analogue” (Biomolecules, 2023):
Read-outs that look alike come from different tables or passages of the source.

Molecular target: T1, Enzyme I C-terminal domain (tEIC) (Caldanaerobacter subterraneus, UniProt Q8R7R4)
T1 construct: gene PtsA; EIC, C-terminal domain (residues 261–575)
Assay: 1H-15N TROSY NMR chemical shift perturbation titration
Assay type: binding
Description: 1H-15N TROSY NMR chemical shift perturbation titration on Enzyme I C-terminal domain (tEIC) | both cPEP and SEP induce significant CSPs on the spectra of tEIC localized in the vicinity of the PEP binding site | SEP is particularly interesting as it binds to the thermophilic enzyme with a KD similar to the physiological substrate

T1 sequence (Q8R7R4 250-573): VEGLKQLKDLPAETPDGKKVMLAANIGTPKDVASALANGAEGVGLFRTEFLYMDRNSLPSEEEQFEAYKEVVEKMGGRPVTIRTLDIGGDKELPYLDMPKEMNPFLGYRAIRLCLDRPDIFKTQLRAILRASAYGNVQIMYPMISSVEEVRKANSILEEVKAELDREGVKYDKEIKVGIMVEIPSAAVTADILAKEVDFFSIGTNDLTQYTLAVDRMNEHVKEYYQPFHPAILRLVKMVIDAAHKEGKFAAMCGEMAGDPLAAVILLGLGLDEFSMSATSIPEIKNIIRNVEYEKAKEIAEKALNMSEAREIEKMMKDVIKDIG

Kd (read-out: Kd) [µM]	SMILES	Kd [µM]
600	C=C(OS(=O)(=O)O)C(=O)O [SEP, sulfoenolpyruvate]	–
–	C=C(CP(=O)(O)O)C(=O)O [cPEP, allylicphosphonate]	2800
